{"source": "patent US11823799B2", "about": "“Method for identifying personalized therapeutic strategies for patients affected with a cancer” (UNIVERSITE DE STRASBOURG, priority 2015, dated 2023)", "key": {"CC model (CR-IC-028M)": {"tested_on": "CC model (CR-IC-028M)", "experiment": "Colorectal tumor PDX model CR-IC-028M, subcutaneous tumor growth in mice", "assay_type": "in vivo, SWISS Nude mice", "conditions": "Cediranib 6 mg/kg p.o", "text": "Small tumor fragments were subcutaneously implanted in the right flank of 9 CB17 SCID mice. When tumor size reached 500-700 mm^3, tumors were surgically excised and small tumor fragments were subcutaneously implanted in the right flank of 52 recipient SWISS Nude mice.\nThe treatment started when tumors reached a mean volume of 200-300 mm^3. 40 animals out were randomized according to their individual tumor volume into 4 groups each of 10 animals using Vivo Manager® software (Biosystemes, Couternon, France). A statistical test (analysis of variance) was performed to test for homogeneity between groups.\nThe administration volume for the two models was 10 mL/kg (200 μL/mouse of 20 g) adjusted to the most recent individual body weight of mice.\nThe tumor volume was calculated by [(a×b^2) 2], where a is the largest tumor diameter and b the perpendicular tumor diameter measured with a caliper every 3 days.\nOn the day of termination (31 days after the first treatment), mice were sacrificed (40 total samples) by gas anesthesia over-dosage (Isoflurane) followed by cervical dislocation or exsanguination and tumor were collected from all mice."}, "[1]": {"tested_on": "glioblastoma patient HB21 tumor", "experiment": "Glioblastoma patient HB21 biopsy cells grafted orthotopically in mouse brain, tumor volume", "assay_type": "in vivo, Immunocompromised mice", "conditions": "for tumor growth inhibition compared to standard of care (Temozolomide): SB-3CT 25 mg/kg p.o, Cediranib 6 mg/kg p.o, 21 days after first treatment", "experimental": "Immunocompromised mice were anesthetized with isoflurane 3% (BAXTER), under 0.5 L 02, and received a subcutaneous injection of ketofen 1% 1.5 mL/Kg (MERIAL). The scalp was incised and 100 000 cells of the dissociated glioblastoma biopsy were engrafted with a 2 μL Hamilton syringe (HARVARD […]; HAM-88400) mounted on a stereotaxic set up (HARVARD […]) at the following coordinates from the bregma x: −2 mm; y: +1 mm; z: −3.5 mm at a speed of 0.66 μl/min, 5 minutes after the syringe introduction. After injection, the syringe was kept in place for 5 minutes, and then raised for 1 mm per minute. The scalp was sutured with 7.5 mm Michel stainless steel wound clips (A75, PERFECT). Animals were allowed to recover under a heat lamp several minutes before they were returned to their cage.\nAfter 52 days of tumor development, mice were randomized in 4 groups of treatment. First group was treated with Temozolomide 40 mg/kg (n=9) i.v during 5 consecutive days, second one was treated with SB-3CT 25 mg/kg (n=9) p.o during 10 days interrupted by 2 days of wash-out after 5 days, a third group was treated with Cediranib 6 mg/kg (n=10) p.o during 10 days interrupted by 2 days of wash-out after 5 days, a last one group was treated with Erlotinib 50 mg/kg (n=9) p.o 1 time per week during 3 weeks. The administration volume was 100 μL. On the day of termination (21 days after the first treatment), all mice are sacrificed by cervical dislocation, brains are removed (38 total samples), and included in cryo-embedding media OCT© and stored at −80° C.\nBrains were cut in 20 μm sections with a cryostat (LEICA CM 3050S), mounted on blade (Superfrost Super Plus), and stored at −20° C. In order to visualize the tumor, brain sections were thawed in distilled water and Stained with 2% diluted Giemsa's staining (SUBRA; RAL diagnostic 320310-1000) in distilled water at 37° C. for 2 hours. […] Tumor volume was calculated by the addition of every partial volume: [Vtotal=Σpartial volumes=Σd1× (S1+S2)/2+d2×(S2+S3)/2+ . . . +dn× (Sn+Sn+1)]. […]"}, "PC model (HID-28) [2]": {"tested_on": "PC model (HID-28)", "experiment": "Prostate tumor PDX model HID-28, subcutaneous tumor growth in mice", "assay_type": "in vivo, nude mice", "conditions": "Cediranib 6 mg/kg p.o; for effect on tumor growth / tumor development: Docetaxel 20 mg/kg i.p, Erlotinib 50 mg/kg p.o, vs vehicle", "text": "Small tumor fragments are subcutaneously implanted in the flank of athymic nude mice. When tumor size reached 1000 to 2000 mm^3, tumors are surgically excised and small tumor fragments (approximately 40 mm^3) are implanted in the subcutaneous tissue of the interscapular region of 82 nude mice. 36 mice with established growing tumors and tumor volume ranging 60 to 200 mm^3 are included in the study and randomized according to their individual tumor volume into 4 groups of 9 mice. Tumor signature is verified during the amplification and also after engraftment.\nThe first group is treated with Erlotinib 50 mg/kg (n=9) p.o 1 time per week during 3 weeks, the second is treated with Cediranib 6 mg/kg (n=9) p.o during 3 cycles of 5 days interrupted by 2 days of wash-out, the third group with a mix of the vehicle of Erlotinib and Cediranib (sodium carboxymethylcellulose 0.5%, captisol 15%, DMSO 1% and methylcellulose 0.5%), and the last group is treated with Docetaxel 20 mg/kg (n=9) i.p during 2 cycles of 1 injection every 3 weeks.\nTumor volume is evaluated biweekly by measuring tumor diameters, with a caliper. The formula TV (mm^3)=[length (mm)×width (mm)^2]/2 will be used, where the length and the width are the longest and the shortest diameters of the tumor, respectively.\nOn the day of termination (28 days after the first treatment), mice are sacrificed by cervical dislocation, tumor are collected from all mice (36 tumor samples totally) and serum from 5 mice per group is collected (20 serum samples totally)."}, "PC model (HID-28) [3]": {"tested_on": "PC model (HID-28)", "conditions": "cited from earlier work"}, "recurrent glioblastoma": {"tested_on": "recurrent glioblastoma", "conditions": "cited from earlier work"}}}
{"molecule": "COc1cc2c(Oc3ccc4[nH]c(C)cc4c3F)ncnc2cc1OCCCN1CCCC1", "note": "[Cediranib]", "values": [{"measurement": "effect on tumor growth / tumor development", "setting": "CC model (CR-IC-028M); Cetuximab 12.5 mg/kg i.p, Trastuzumab 1 mg/kg i.p, vs vehicle", "result": "very significant anti-tumor activity"}, {"measurement": "tumor volume change", "setting": "CC model (CR-IC-028M); end point of the protocol, p=0.01, T-test, evolution of tumor growth P<0.0001", "result": "−50", "unit": "%"}, {"measurement": "tumor growth inhibition compared to standard of care (Temozolomide)", "setting": "[1]", "result": "identical to the one obtained with the standard of care"}, {"measurement": "effect on tumor growth / tumor development", "setting": "PC model (HID-28) [2]", "result": "very significant anti-tumor activity"}, {"measurement": "tumor volume change", "setting": "PC model (HID-28) [2]; end point of the protocol, p=0.002, T-test, evolution of tumor growth P<0.0001", "result": "−78", "unit": "%"}]}
{"molecule": "CC(=O)O[C@@]12CO[C@@H]1C[C@H](O)[C@@]1(C)C(=O)[C@H](O)C3=C(C)[C@@H](OC(=O)[C@H](O)[C@@H](NC(=O)OC(C)(C)C)c4ccccc4)C[C@@](O)([C@@H](OC(=O)c4ccccc4)[C@H]21)C3(C)C", "note": "[Docetaxel]", "values": [{"measurement": "effect on tumor growth / tumor development", "setting": "PC model (HID-28) [2]", "result": "tumor growth was inhibited"}, {"measurement": "response of the model in previous results", "setting": "PC model (HID-28) [3]", "result": "responsive"}]}
{"molecule": "C#Cc1cccc(Nc2ncnc3cc(OCCOC)c(OCCOC)cc23)c1", "note": "[Erlotinib]", "values": [{"measurement": "efficacy when compared to all other drugs", "setting": "[1]; Erlotinib 50 mg/kg p.o 1 time per week, 3 weeks, not significantly different", "result": "−60", "unit": "%"}, {"measurement": "effect on tumor growth / tumor development", "setting": "PC model (HID-28) [2]", "result": "not efficient in blocking tumor development"}]}
{"molecule": "O=S(=O)(CC1CS1)c1ccc(Oc2ccccc2)cc1", "note": "(stereo not drawn) [SB-3CT]", "values": [{"measurement": "tumor growth inhibition compared to standard of care (Temozolomide)", "setting": "[1]", "result": "identical to the one obtained with the standard of care"}]}
{"molecule": "Bevacizumab", "values": [{"measurement": "PFS and OS advantage in phase III trials", "setting": "recurrent glioblastoma; AVAglio and RTOG phase III trials (Soffietti 2014)", "result": "significant advantage for Bevacizumab treated patients in term of PFS but not of OS"}, {"measurement": "patients who seem to benefit from treatment", "setting": "recurrent glioblastoma; overall", "result": "less than 50%"}]}
